The text below walks through data of patent US20090163591A1, “USE OF SUGAR PHOSPHATES, SUGAR PHOSPHATE ANALOGS, AMINO ACIDS AND/OR AMINO ACID ANALOGS FOR MODULATING THE GLUCOLYSIS-ENZYME COMPLEX, THE MALATE ASPARATE SHUTTLE AND/OR THE TRANSAMINASES” (priority 2001, published 2009).

Experiment [1] concerns Novikoff hepatoma cells. Nature of the experiment: Dose-dependence of proliferation inhibition, cell density of cultivated Novikoff hepatoma cells. It is filed as cell-based, rat. As to conditions: four days of cultivation, at higher dosage levels. The procedure:
For the experiments, Novikoff hepatoma cells were cultivated in a conventional manner. The control substance contained a solvent without an active ingredient. The other groups received different doses of a respective test compound. After four days of cultivation with or without active ingredient, the cell density was determined using standard methods. In FIG. 2 is shown the dose-dependence of obtained cell densities for aminooxyacetate, in FIG. 3 for CHBA, in FIG. 4 for glycerate-2,3-bisphosphate, and in FIG. 5 for fructose-1,6-bisphosphate.

The target of experiment [2] is M2-PK (Homo sapiens, UniProt P14618). The conditions noted are these: known from Eigenbrodt et al. 1992; cited from earlier work.
Experiment [3] deals with Novikoff hepatoma. In words: Novikoff hepatoma tumor model in rats, IV infusion, tumor volume. It is filed as in vivo, rat. The conditions noted are these: for inhibition of tumor growth if the tumor was relatively small at the beginning of the treatment: Novikoff hepatoma, IV infusion, in some cases apoptosis; for inhibition of the tumor growth (tumor size): subcutaneous Novikoff hepatoma, continuous IV infusion over 10 days, 1.25 mM aminooxyacetate or 10 μM CHBA, beginning with a tumor volume of 1 ml, vs NaCl control. The procedure:
As a tumor model, immuno-competent adult rats were used, treated with IV infusion. This animal model provides better correlation to human therapy than immuno-incompetent nude mice, which are commonly used. The animal tests were approved according to paragraph 8 section 1 of the German Animal Protection Act, and were performed according to the recommendations of the Tieraerztliche Vereinigung fuer Tierschutz e.V. (Veterinarians' Association for Animal Protection). Male inbreed rats (Sprague-Dawley, 200-250 g, Charles River, Sulzfeld, Germany) were used as tumor recipients.
Novikoff hepatoma was used as the source of tumor cells. Of several tested, experimentally produced tumors, the Novikoff hepatoma best all requirements of a solid tumor having all signs of malignity and similarity to hepatocellular carcinoma in humans. The Novikoff hepatoma was induced by Alex B. Novikoff in […] by feeding a diet containing 0.06% […] (butter yellow) to female Sprague-Dawley rats (Novikoff B., A transplantable rat liver tumour induced by 4-dimethylaminoazobenzene. Cancer Res. 1951; 17:1010). […] The chromatin structure in the tumor cells appears in an irregular form, and the nuclei are indented, round and oval.
The Deutsches Krebsforschungsinstitut in Heidelberg provided the Novikoff hepatoma cells. The cells were received in Hank's solution and intraperitoneally injected in a sterile manner into a Sprague-Dawley rat for passaging. Within a week, approximately 50 ml hemorrhagic ascites were generated and removed in a sterile manner. The pellet generated after centrifugation at 1,300 rpm for five minutes in a Falcon tube was prepped for further purification of cells from other ascites components by washing with 50 ml Dulbecco's MEM (Gibco BRL, Eggenstein) and centrifugation at 1,300 rpm for five minutes. The supernatant was decanted, and the pellet was mixed in Dulbecco's+40% fetal calf serum (FCS). 0.7 ml cell suspension and 0.7 freezing medium each were filled in Nunc tubes, airtight sealed, pre-cooled for five minutes at −20° C. and for 12 hours at −80° C., and then deep-frozen in liquid nitrogen. The freezing medium was 40% Dulbecco's, 40% FCS and 20% DMSO.
The cells were prepared for the application as follows: after thawing, the pellet was reacted in a Falcon tube with 50 ml of a medium (Dulbecco's+40% FCS), pre-heated to 37° C., and centrifuged for five minutes at 1,300 rpm. […]
After centrifugation and decantation of the supernatant, the pellet was suspended in HBSS, 100 microlitres were sampled with an Eppendorf pipette and counted for determining the number of vital cells after vital staining with erythrosine (BioMed, Munich, Germany) in a Neubauer counting chamber. […]
The tumor size was determined by CT-supported volumetry. […]

The target of experiment [4] is T1, glutamate pyruvate transaminase (Homo sapiens, UniProt P24298).
T1 sequence (P24298 2-496 limits assumed): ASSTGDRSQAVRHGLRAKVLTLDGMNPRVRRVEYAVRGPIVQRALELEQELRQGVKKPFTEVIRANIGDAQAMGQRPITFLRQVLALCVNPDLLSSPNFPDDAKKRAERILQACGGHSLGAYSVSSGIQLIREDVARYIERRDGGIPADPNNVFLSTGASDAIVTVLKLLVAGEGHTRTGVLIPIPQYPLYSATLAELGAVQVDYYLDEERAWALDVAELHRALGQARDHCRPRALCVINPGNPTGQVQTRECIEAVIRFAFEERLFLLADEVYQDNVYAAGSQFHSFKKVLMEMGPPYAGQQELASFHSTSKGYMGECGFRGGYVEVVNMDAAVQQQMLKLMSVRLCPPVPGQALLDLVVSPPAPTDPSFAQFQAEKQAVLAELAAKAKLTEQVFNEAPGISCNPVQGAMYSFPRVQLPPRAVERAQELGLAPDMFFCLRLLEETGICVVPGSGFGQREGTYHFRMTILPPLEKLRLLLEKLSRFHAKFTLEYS
The conditions noted are these: known from Eigenbrodt et al. 1994; cited from earlier work.

The subject of experiment [5] is cells. As to conditions: known from Eigenbrodt et al. 1994; cited from earlier work.

Sequence of M2-PK (P14618 whole entry, species assumed, the tested form may be a part): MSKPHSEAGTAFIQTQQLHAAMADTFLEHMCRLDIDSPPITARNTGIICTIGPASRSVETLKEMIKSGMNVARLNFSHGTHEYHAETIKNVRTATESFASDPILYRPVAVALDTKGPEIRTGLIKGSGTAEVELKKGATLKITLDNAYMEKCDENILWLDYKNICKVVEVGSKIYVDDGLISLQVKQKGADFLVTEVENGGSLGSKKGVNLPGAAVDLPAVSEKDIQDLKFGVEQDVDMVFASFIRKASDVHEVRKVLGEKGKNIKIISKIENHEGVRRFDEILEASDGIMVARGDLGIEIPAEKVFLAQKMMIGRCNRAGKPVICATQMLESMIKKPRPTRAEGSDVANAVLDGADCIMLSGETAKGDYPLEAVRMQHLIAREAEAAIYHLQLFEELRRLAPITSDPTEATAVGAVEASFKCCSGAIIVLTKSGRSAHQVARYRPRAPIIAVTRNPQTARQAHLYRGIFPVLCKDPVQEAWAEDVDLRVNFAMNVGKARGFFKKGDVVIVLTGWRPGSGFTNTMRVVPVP

Take `O=C(COP(=O)(O)O)[C@@H](O)[C@H](O)[C@H](O)COP(=O)(O)O` [fructose-1,6-bisphosphate]: in experiment [1], the “inhibition of cell density (proliferation)” value (from here on “inhibition of cell density”) is reported as “practically complete inhibition”. The “displacement of the dimeric form to the highly active tetrameric form of M2-PK” value in experiment [2] is “leads to a displacement of the dimeric form to the highly active tetrameric form”.
`NOCC(=O)O` [aminooxyacetate]: in experiment [3], the “inhibition of tumor growth if the tumor was relatively small at the beginning of the treatment” value is reported as “practically complete inhibition” and the “inhibition of the tumor growth (tumor size)” value is on record as “substantial inhibition”. For the same molecule, the “inhibition of cell density” value in experiment [1] is recorded as “practically complete inhibition”. In addition, the “inhibition of glutamate pyruvate transaminase” value in experiment [4] is “inhibit”. In experiment [5], the “inhibition of the proliferation of cells” value is “can inhibit”.
On to `O=C(O)C(COP(=O)(O)O)OP(=O)(O)O` (stereo not drawn) [glycerate-2,3-bisphosphate], for which the “inhibition of cell density” value in experiment [1] is on record as “practically complete inhibition”.
In the case of `C[C@H](N)C(=O)O` [alanine], the “inhibition of M2-PK” value in experiment [2] was “inhibit”.
As to `N[C@@H]1CON=C1O` [cycloserine, reference compound], in experiment [4], the “inhibition of glutamate pyruvate transaminase” value was “inhibit”. In addition, in experiment [5], the “inhibition of the proliferation of cells” value is recorded as “can inhibit”.
With `CC(O)=C(C#N)C(=O)Nc1ccc(C(F)(F)F)cc1` [CHBA, 2-cyano-3-hydroxy-but-2-(4-trifluoromethyl-phenyl)-amide], in experiment [3], the “inhibition of tumor growth if the tumor was relatively small at the beginning of the treatment” value is given as “practically complete inhibition” and the “inhibition of the tumor growth (tumor size)” value is recorded as “substantial inhibition”. In experiment [1], the “inhibition of cell density” value was “practically complete inhibition”.
With `CC(C)C[C@H](N)C(=O)O` [leucine], the “inhibition of M2-PK” value in experiment [2] is reported as “inhibit”.
